IC50 data for 12 compounds are collected here from US20250114374A1, “BCL-2 INHIBITORS” (Newave Pharmaceutical Inc., priority 2021, published 2025).

This assay concerns RS4; 11 with G101V mutation. Briefly: In vitro anti-proliferation assay (ATPlite luminescence) in BCL-2-dependent ALL cell line RS4;11 with G101V mutation. The settings on record: read-out: RS411-G101V IC50. Format: cell-based. The method, boiled down:
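RS4;11 G101V cells at about 1×10^4 per well were exposed to a range of compound concentrations for about 72 h in medium with 10% FBS. Cellular ATP was measured by ATPlite luminescence after lysis, and IC50 was derived from the dose-response.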

Where [1] appears, read: cellular anti-proliferative IC50, about 72 hours, medium with 10% FBS, ATPlite.

Read-outs that look alike come from different tables or passages of the source.

In the case of `CC(C)Oc1ccccc1[C@@H]1CN([C@H]2COCc3c(F)cc(F)cc32)CCN1C1CC2(CCN(c3ccc(C(=O)NS(=O)(=O)c4cc5c(c([N+](=O)[O-])c4)N[C@H](C4CCOCC4)CO5)c(N4c5cc6cc[nH]c6nc5O[C@H]5COCC[C@@H]54)c3)CC2)C1` [Example 230, 4-(2-((R)-4-((R)-6,8-difluoroisochroman-4-yl)-2-(2-isopropoxyphenyl)piperazin-1-yl)-7-azaspiro[3.5]nonan-7-yl)-N-(((R)-5-nitro-3-(tetrahydro-2H-pyran-4-yl)-3,4-dihydro-2H-benzo[b][1,4]oxazin-7-yl)sulfonyl)-2-((5aS,9aR)-6,7,9,9a-tetrahydro-1H-pyrano[3,4-b]pyrrolo[3′,2′:5,6]pyrido[3,2-e][1,4]oxazin-5(5aH)-yl)benzamide], where the note is “Homo sapiens, RS4-11, 72 h”, the IC50 (commonly the concentration at which inhibition is half-maximal) amounted to 104 nM.

With `CC(C)Oc1ccccc1[C@@H]1CN(C2CCC(C)(C)CC2)CCN1C1CC2(CCN(c3ccc(C(=O)NS(=O)(=O)c4cc5c(c([N+](=O)[O-])c4)N[C@H](C4CCOCC4)CO5)c(N4c5cc6cc[nH]c6nc5O[C@H]5COCC[C@@H]54)c3)CC2)C1` (stereo partly drawn) [Example 226, 4-{2-[(2R)-4-(4,4-dimethylcyclohexyl)-2-(2-isopropoxyphenyl)piperazin-1-yl]-7-azaspiro[3.5]nonan-7-yl}-2-[(3R,8S)-2,5-dioxa-9,15,17-triazatetracyclo[8.7.0.0^{3,8}.0^{12,16}]heptadeca-1(10),11,13,16-tetraen-9-yl]-N-[(3R)-5-nitro-3-(oxan-4-yl)-3,4-dihydro-2H-1,4-benzoxazin-7-ylsulfonyl]benzamide], the IC50 under setting [1] stood at 62.6 nM. Still for that read-out and setting: then `CC(C)Oc1ccccc1[C@@H]1CN(Cc2ccc(F)c(F)c2)CCN1C1CC2(CCN(c3ccc(C(=O)NS(=O)(=O)c4cc5c(c([N+](=O)[O-])c4)N[C@H](C4CCOCC4)CO5)c(N4c5cc6cc[nH]c6nc5O[C@@H]5COCC[C@H]54)c3)CC2)C1` [Example 239, 4-{2-[(2R)-4-[(3,4-difluorophenyl)methyl]-2-(2-isopropoxyphenyl)piperazin-1-yl]-7-azaspiro[3.5]nonan-7-yl}-2-[(3S,8R)-2,5-dioxa-9,15,17-triazatetracyclo[8.7.0.0^{3,8}.0^{12,16}]heptadeca-1(10),11,13,16-tetraen-9-yl]-N-[(3R)-5-nitro-3-(oxan-4-yl)-3,4-dihydro-2H-1,4-benzoxazin-7-ylsulfonyl]benzamide], with 7.1 nM; and `Cc1cc2c(CN3CCN(C4CC5(CCN(c6ccc(C(=O)NS(=O)(=O)c7ccc(NCC8CCC(C)(O)CC8)c([N+](=O)[O-])c7)c(N7c8cc9cc[nH]c9nc8O[C@H]8COCC[C@@H]87)c6)CC5)C4)[C@@H](c4ccccc4OC(C)C)C3)cnc(N3CCOCC3)c2o1` (stereo partly drawn) [Example 147, 2-[(3R,8S)-2,5-dioxa-9,15,17-triazatetracyclo[8.7.0.0^{3,8}.0^{12,16}]heptadeca-1(10),11,13,16-tetraen-9-yl]-4-{2-[(2S)-2-(2-isopropoxyphenyl)-4-{[2-methyl-7-(morpholin-4-yl)furo[2,3-c]pyridin-4-yl]methyl}piperazin-1-yl]-7-azaspiro[3.5]nonan-7-yl}-N-[3-nitro-4-({[(1r,4r)-4-hydroxy-4-methylcyclohexyl]methyl}amino)benzenesulfonyl]benzamide], with 31.9 nM. On the same count and under the same terms, then `CC(C)Oc1ccccc1[C@@H]1CN(Cc2ccc(C(C)C)nc2)CCN1C1CC2(CCN(c3ccc(C(=O)NS(=O)(=O)c4cc5c(c([N+](=O)[O-])c4)N[C@H](C4CCOCC4)CO5)c(N4c5cc6cc[nH]c6nc5O[C@H]5COCC[C@@H]54)c3)CC2)C1` [Example 255, 2-[(3R,8S)-2,5-dioxa-9,15,17-triazatetracyclo[8.7.0.0^{3,8}.0^{12,16}]heptadeca-1(10),11,13,16-tetraen-9-yl]-4-{2-[(2R)-2-(2-isopropoxyphenyl)-4-[(6-isopropylpyridin-3-yl)methyl]piperazin-1-yl]-7-azaspiro[3.5]nonan-7-yl}-N-[(3R)-5-nitro-3-(oxan-4-yl)-3,4-dihydro-2H-1,4-benzoxazin-7-ylsulfonyl]benzamide], with 6.39 nM; and `CC(C)Oc1ccccc1[C@@H]1CN(Cc2ccc(F)c(F)c2)CCN1C1CC2(CCN(c3ccc(C(=O)NS(=O)(=O)c4cc5c(c([N+](=O)[O-])c4)N[C@H](C4CCOCC4)CO5)c(N4c5cc6cc[nH]c6nc5O[C@@H]5CCOC[C@H]54)c3)CC2)C1` [Example 241, 4-{2-[(2R)-4-[(3,4-difluorophenyl)methyl]-2-(2-isopropoxyphenyl)piperazin-1-yl]-7-azaspiro[3.5]nonan-7-yl}-2-[(3R,8R)-5,9-dioxa-2,11,13-triazatetracyclo[8.7.0.0^{3,8}.0^{12,16}]heptadeca-1(10),11,14,16-tetraen-2-yl]-N-[(3R)-5-nitro-3-(oxan-4-yl)-3,4-dihydro-2H-1,4-benzoxazin-7-ylsulfonyl]benzamide], with 4.45 nM. In the case of `COc1cc([C@@H](C)N2CCN(C3CC4(CCN(c5ccc(C(=O)NS(=O)(=O)c6cc7c(c([N+](=O)[O-])c6)N[C@H](C6CCOCC6)CO7)c(N6c7cc8cc[nH]c8nc7O[C@H]7COCC[C@@H]76)c5)CC4)C3)[C@H](c3ccccc3C)C2)cnc1N1CCOC[C@@H]1C` [Example 194, 4-(2-((R)-4-((R)-1-(5-methoxy-6-((S)-3-methylmorpholino)pyridin-3-yl)ethyl)-2-(o-tolyl)piperazin-1-yl)-7-azaspiro[3.5]nonan-7-yl)-N-(((R)-5-nitro-3-(tetrahydro-2H-pyran-4-yl)-3,4-dihydro-2H-benzo[b][1,4]oxazin-7-yl)sulfonyl)-2-((5aS,9aR)-6,7,9,9a-tetrahydro-1H-pyrano[3,4-b]pyrrolo[3′,2′:5,6]pyrido[3,2-e][1,4]oxazin-5(5aH)-yl)benzamide], where the note is “Homo sapiens, RS4-11, 72 h”, the IC50 stood at 2.53 nM. In the case of `CC(C)Oc1ccccc1[C@@H]1CN([C@@H](C)c2ccc(F)c(F)c2)CCN1C1CC2(CCN(c3ccc(C(=O)NS(=O)(=O)c4cc5c(c([N+](=O)[O-])c4)N[C@H](C4CCOCC4)CO5)c(N4c5cc6cc[nH]c6nc5O[C@H]5COCC[C@@H]54)c3)CC2)C1` [Example 243, 4-{2-[(2R)-4-[(1S)-1-(3,4-difluorophenyl)ethyl]-2-(2-isopropoxyphenyl)piperazin-1-yl]-7-azaspiro[3.5]nonan-7-yl}-2-[(3R,8S)-2,5-dioxa-9,15,17-triazatetracyclo[8.7.0.0^{3,8}.0^{12,16}]heptadeca-1(10),11,13,16-tetraen-9-yl]-N-[(3R)-5-nitro-3-(oxan-4-yl)-3,4-dihydro-2H-1,4-benzoxazin-7-ylsulfonyl]benzamide], the IC50 under setting [1] was determined as 22.2 nM.

Take `COc1ccc(CN2CCN(C3CC4(CCN(c5ccc(C(=O)NS(=O)(=O)c6ccc(NC[C@H]7CC[C@](C)(O)CC7)c([N+](=O)[O-])c6)c(N6c7cc8cc[nH]c8nc7O[C@H]7COCC[C@@H]76)c5)CC4)C3)[C@@H](c3ccccc3OC(C)C)C2)nc1OC` [Example 105, 4-{2-[(2S)-4-[(5,6-dimethoxypyridin-2-yl)methyl]-2-(2-isopropoxyphenyl)piperazin-1-yl]-7-azaspiro[3.5]nonan-7-yl}-2-[(3R,8S)-2,5-dioxa-9,15,17-triazatetracyclo[8.7.0.0^{3,8}.0^{12,16}]heptadeca-1(10),11,13,16-tetraen-9-yl]-N-[3-nitro-4-({[(1r,4r)-4-hydroxy-4-methylcyclohexyl]methyl}amino)benzenesulfonyl]benzamide]: the IC50 under setting [1] was 19.3 nM. The same measure, in the same setting: for `CC(C)Oc1ccccc1[C@@H]1CN([C@@H]2COCc3c2ccc(F)c3F)CCN1C1CC2(CCN(c3ccc(C(=O)NS(=O)(=O)c4cc5c(c([N+](=O)[O-])c4)N[C@H](C4CCOCC4)CO5)c(N4c5cc6cc[nH]c6nc5O[C@H]5COCC[C@@H]54)c3)CC2)C1` [Example 248, 4-{2-[(2R)-4-[(4S)-7,8-difluoro-3,4-dihydro-1H-2-benzopyran-4-yl]-2-(2-isopropoxyphenyl)piperazin-1-yl]-7-azaspiro[3.5]nonan-7-yl}-2-[(3R,8S)-2,5-dioxa-9,15,17-triazatetracyclo[8.7.0.0^{3,8}.0^{12,16}]heptadeca-1(10),11,13,16-tetraen-9-yl]-N-[(3R)-5-nitro-3-(oxan-4-yl)-3,4-dihydro-2H-1,4-benzoxazin-7-ylsulfonyl]benzamide] the value was 9.68 nM; for `Cc1ccccc1[C@@H]1CN(C2CCN(C3CCOCC3)CC2)CCN1C1CC2(CCN(c3ccc(C(=O)NS(=O)(=O)c4cc5c(c([N+](=O)[O-])c4)N[C@H](C4CCOCC4)CO5)c(N4c5cc6cc[nH]c6nc5O[C@H]5COCC[C@@H]54)c3)CC2)C1` [Example 201, 2-[(3R,8S)-2,5-dioxa-9,15,17-triazatetracyclo[8.7.0.0^{3,8}.0^{12,16}]heptadeca-1(10),11,13,16-tetraen-9-yl]-4-{2-[(2R)-2-(2-methylphenyl)-4-[1-(oxan-4-yl)piperidin-4-yl]piperazin-1-yl]-7-azaspiro[3.5]nonan-7-yl}-N-[(3R)-5-nitro-3-(oxan-4-yl)-3,4-dihydro-2H-1,4-benzoxazin-7-ylsulfonyl]benzamide], 232 nM; for `CC(C)Oc1ccccc1[C@H]1CN(Cc2ccc3c(c2)OCCO3)CCN1C1CC2(CCN(c3ccc(C(=O)NS(=O)(=O)c4ccc(NCC5CCC(C)(O)CC5)c([N+](=O)[O-])c4)c(N4c5cc6cc[nH]c6nc5O[C@H]5COCC[C@@H]54)c3)CC2)C1` (stereo partly drawn) [Example 152, 4-(2-((S)-4-((2,3-dihydrobenzo[b][1,4]dioxin-6-yl)methyl)-2-(2-isopropoxyphenyl)piperazin-1-yl)-7-azaspiro[3.5]nonan-7-yl)-N-((4-((((1r,4r)-4-hydroxy-4-methylcyclohexyl)methyl)amino)-3-nitrophenyl)sulfonyl)-2-((5aS,9aR)-6,7,9,9a-tetrahydro-1H-pyrano[3,4-b]pyrrolo[3′,2′:5,6]pyrido[3,2-e][1,4]oxazin-5(5aH)-yl)benzamide], 28.3 nM.
